Test results as given in patent publication US20240415791A1, “Therapeutic methods and compositions for treating cancer using devimistat and a fatty acid oxidation inhibitor, a tyrosine kinase inhibitor, a glutaminase inhibitor, and/or a glycolysis inhibitor” (Cornerstone Pharmaceuticals, Inc., priority 2021, published 2024).
Read-outs that look alike come from different tables or passages of the source.

Key:
AsPC1 cells [1] = assay: Acute ATP synthesis rescue by exogenous carbon sources in AsPC1 cells treated with devimistat and GPi; assay type: cell-based, human; conditions: for inhibition of oleic acid (OA)-driven acute ATP synthesis / OA rescue / OA rescue blockade: 50 μM oleic acid; for OA rescue blockade: acute ATP synthesis, 50 μM GPi
AsPC1 cells [2] = assay: Devimistat-induced cell death (ATP after recovery) in AsPC1 cells; assay type: cell-based, human; conditions: for sensitization to devimistat-induced cell death, agent combined with devimistat: AsPC1, nutrient-free CBS2, treatment followed by recovery in serum-free RPMI; for Devimistat synergy: devimistat-induced cell death, no exogenous carbon, 15 hours treatment then recovery
Method: Cells were plated at 80% confluency in complete RPMI in black, clear bottom 96-well plates or 35-mm dishes for ATP, protein and glycogen analysis, or glass coverslips for fluorescence visualization. […] Prior to drug treatment, cells were incubated in a nutrient-free carbonate buffered salt solution (CBS2) for 3 hours. Drug treatments were then carried out in CBS2 with addition of nutrient sources and/or chemical agents as described in the Examples and Figures.
(§1) LOGIC: High throughput, plate reader assays for cell death essentially always ultimately depend on metabolic activity of cells to identify viability, directly or indirectly. Thus, strong inhibition of metabolic activity by anti-metabolism agents like those described herein can confound cell death analysis by such assays. […] The inventors thus used a recovery-based assay wherein cells are treated with anti-metabolic agents under conditions where mitochondrial metabolism is (or becomes) limiting on viability. After experimental treatment, drug and media are removed and cells are allowed to recover in serum-free RPMI. RPMI provides high levels of glucose in support of glycolytic ATP generation (independently of mitochondrial function), allowing viable cells to recover ATP levels that are ultimately measured in the plate assay to score cell viability.
Survival is assessed by conventional luminescence measurement of ATP levels after this recovery.
TECHNICAL DETAILS: Immediately after drug treatments, acute ATP levels of cells in black, clear bottom 96-well plates were measured using the CellTiter-Glo® Luminescent Cell Viability Assay (catalog #G775B) following Promega (Madison, WI) protocols. […] After this recovery period ATP levels were measured using the CellTiter-Glo® Luminescent Cell Viability Assay as described above.
Survival is assessed by conventional luminescence measurement of ATP levels after this recovery. See the Methods section above for a detailed description of this assay and its validation.

PANC1 cells [3] = assay: Devimistat-induced cell death (ATP after recovery) in PANC1 cells; assay type: cell-based, human; conditions: PANC1, nutrient-free CBS2, treatment followed by recovery in serum-free RPMI
Method: Cells were plated at 80% confluency in complete RPMI in black, clear bottom 96-well plates or 35-mm dishes for ATP, protein and glycogen analysis, or glass coverslips for fluorescence visualization. To create low nutritional conditions, cells were seeded in complete media, after 24 hours cells were transferred to serum free RPMI for 18-24 hours. Prior to drug treatment, cells were incubated in a nutrient-free carbonate buffered salt solution (CBS2) for 3 hours. Drug treatments were then carried out in CBS2 with addition of nutrient sources and/or chemical agents as described in the Examples and Figures.
as §1, with “cell viability. Under these conditions, cells that are committed to execution of cell death by the experimental treatment score as dead and cells that have not committed to cell death recover ATP levels and score as viable.” for “cell viability.”
Specifically, after exposure to the treatments indicated, cells are allowed to recover ([…]) in RPMI without serum. Survival is assessed by conventional luminescence measurement of ATP levels after this recovery.
TECHNICAL DETAILS: Immediately after drug treatments, acute ATP levels of cells in black, clear bottom 96-well plates were measured using the CellTiter-Glo® Luminescent Cell Viability Assay (catalog #G775B) following Promega (Madison, WI) protocols. To assess cell viability, after drug treatments, drug/agent-containing medium was replaced with serum-free RPMI and cells were incubated for an additional 17-24 hours to allow recovery of viable cells, without additional cell division. After this recovery period ATP levels were measured using the CellTiter-Glo® Luminescent Cell Viability Assay as described above.
A. Exogenous glucose protects from devimistat-induced cell death. Four different cell lines were exposed for 15 hours (PANC1, AsPC1, H460) or 8 hours (PC3) to the indicated range of devimistat doses in the absence of exogenous nutrients (in carbonate buffered balanced salts solution, CBS2) after 3 hours of preincubation in CBS2 (for cell adaptation and to equilibrate soluble nutrient pools). Cells were exposed to the treatments indicated, followed by recovery (24 hours) in RPMI without serum (providing nutrient support for viable cell recovery, without serum factors for cell division). Survival is assessed by conventional luminescence measurement of ATP levels after this recovery. […] The relatively large quantitative differences in devimistat sensitivity between cell lines under exogenous nutrient deprivation are characteristic of each line (see examples below), with small experiment-to-experiment variation. […]

PANC1 cells [4] = assay: Glycogen content in PANC1 cells; assay type: cell-based, human; conditions: PANC1, CBS2, 3 hours
Method: (§2) Glycogen was quantified using the Glycogen Assay Kit II (colorimetric) from AbCam (ab169558) according to manufacturer's instructions. Briefly, approximately 2×10^6 cells were washed with ice-cold PBS and collected via scraping in 300 μL ice-cold ddH2O. Cells were immediately sonicated on ice for 5× […] pulses with a probe sonicator (Misonix Inc, model XL2000), then heated to 80° C. for 10 min. Samples were stored O/N at −20° C., then thawed, centrifuged at 12,000×g for 10 min and the supernatants collected for glycogen hydrolysis and quantification according to manufacturer's instructions.
C. Comparison of endogenous glycogen stores and their devimistat-induced depletion in PANC1 and AsPC1 cells. Cells were treated in CBS2 for 3 hours with 30 μM devimistat or mock treated (FIG. 2C, left), or treated for 3 hours with the indicated devimistat doses (FIG. 2C, right). Glycogen quantitation is described in Methods, above. ** indicates p<0.01. **** indicates p<0.0001.
(§3) D. Effects of anti-metabolism agents on glycogen consumption in PANC1 and AsPC1 cells. […] Glycogen content was measured in cell lysates (see Methods, above) and the results are presented in the left and middle graphs in FIG. 3D (note the different vertical scales for PANC1 and AsPC1 plots).

AsPC1 cells [5] = assay: Glycogen content in AsPC1 cells; assay type: cell-based, human; conditions: AsPC1, CBS2, 3 hours
Method: as §2
C. […] Cells were treated in CBS2 for 3 hours with 30 μM devimistat or mock treated (FIG. 2C, left), or treated for 3 hours with the indicated devimistat doses (FIG. 2C, right).
as §3

AsPC1 xenograft = AsPC1 xenograft tumor growth, crizotinib and devimistat; assay type: in vivo, mice; conditions: crizotinib oral gavage, devimistat IP, MWF
Method: Female, 6-week-old, CD1-nu/nu mice were inoculated with 2.5 million PANC-1 cell in 100 μL of HBSS or 5 million AsPC-1 cells in HBSS. Treatment commenced when tumors reached 100 mm^3 and lasted for the times indicated in the Examples and Figures. Mice were treated three times per week (MWF) with vehicle or drugs as indicated in the Examples and Figures. Tumors were measured once per week. […] Use of Matrigel for tumor inoculation was avoided in TGI experiments with this class of agents.
D. Assessment of CRZ and/or devimistat effects on AsPC1 xenograft tumor growth in vivo. Tumors were inoculated subcutaneously on the flank and drug combinations indicated in FIG. 8C were administered intraperitoneally (devimistat) or by oral gavage (CRZ) three days per week (MWF). Tumor size was estimated by caliper assessment of tumor radius and calculation of volume (see Methods).

AsPC1 cells [6] = assay: CO2 release from 14C-oleic acid in AsPC1 cells; assay type: cell-based, human; conditions: AsPC1, CBS2, 50 μM GPi, 40 μM oleic acid
[7] = AsPC1, 50 μM GPi, 60 μM devimistat

Compound	sensitization to devimistat-induced cell death, agent combined with devimistat (AsPC1 cells [2])	glycogen consumption (AsPC1 cells [5])	inhibition of oleic acid (OA)-driven acute ATP synthesis / OA rescue (AsPC1 cells [1]; [7])	OA rescue blockade (AsPC1 cells [1]; 60 μM devimistat)	further results
O=C(Cc1cccc(OC(F)(F)F)c1)Nc1ccc(CCCCc2nnc(NC(=O)Cc3ccccn3)s2)nn1 [CB-839, 2-(pyridin-2-yl)-N-(5-(4-(6-(2-(3-(trifluoromethoxy)phenyl)acetamido)pyridazin-3-yl)butyl)-1,3,4-thiadiazol-2-yl)acetamide]	modest effects on devimistat sensitivity	–	–	–	blockade of glutamine rescue from devimistat inhibition of ATP synthesis (AsPC1 cells [1]; AsPC1, 50 μM GPi, 60 μM devimistat, 2 mM glutamine, CB-839 0.2 μM, hexachlorophene 3 μM, 4.5 hours): blockade; sensitization to devimistat-induced cell death, agent combined with devimistat (PANC1 cells [3]): modest effects on devimistat sensitivity
CN(C)C(=O)[C@H](O)[C@H](Cc1ccccc1)NC(=O)c1cc2cc(Cl)ccc2[nH]1 [CP-91149, 5-chloro-N-[(1S,2R)-3-(dimethylamino)-2-hydroxy-3-oxo-1-(phenylmethyl)propyl]-1H-indole-2-carboxamide]	Synergy observed	reduces glycogen consumption	–	–	glycogen consumption (PANC1 cells [4]): reduces glycogen consumption; sensitization to devimistat-induced cell death, agent combined with devimistat (PANC1 cells [3]): interacts more weakly with devimistat
C[C@@H](Oc1cc(-c2cnn(C3CCNCC3)c2)cnc1N)c1c(Cl)ccc(F)c1Cl [Crizotinib, (R)-3-[1-(2,6-Dichloro-3-fluorophenyl)ethoxy]-5-[1-(piperidin-4-yl)-1H-pyrazol-4-yl]pyridin-2-amine]	robustly sensitize	–	robust inhibition	Yes	sensitization to devimistat tumor cell killing in vivo (AsPC1 xenograft): sensitizes to devimistat tumor cell killing in vitro and in vivo
CCOC(=O)[C@@]1(CCCCCCOc2ccc(Cl)cc2)CO1 [ETX]	enhances devimistat effects	–	strongly inhibited	–	oleic acid beta-oxidation (CO2 release from oleate) (AsPC1 cells [6]): block oleic acid beta-oxidation
COc1cc2c(Oc3ccc(NC(=O)C4(C(=O)Nc5ccc(F)cc5)CC4)cc3F)ccnc2cc1OCCCN1CCOCC1 [Foretinib, N1′-[3-fluoro-4-[[6-methoxy-7-(3-morpholinopropoxy)-4-quinolyl]oxy]phenyl]-N1-(4-fluorophenyl)cyclopropane-1,1-dicarboxamide]	robustly sensitize	–	robust inhibition	Yes	Devimistat synergy (AsPC1 cells [2]): Yes
CNC(=O)c1c(F)cccc1Nc1nc(Nc2cc3c(cc2OC)CCN3C(=O)CN(C)C)nc2[nH]ccc12 [GSK1838705A]	more limited sensitization	–	little or no inhibition	No	Devimistat synergy (AsPC1 cells [2]): No
CCN(CCO)CCCC(C)Nc1ccnc2cc(Cl)ccc12 (stereo not shown) [HCQ]	Synergy observed	significantly accelerates glycogen consumption	–	–	glycogen consumption (PANC1 cells [4]): significantly accelerates glycogen consumption; sensitization to devimistat-induced cell death, agent combined with devimistat (PANC1 cells [3]): Synergy observed
CSc1cccc(Nc2ncc3cc(-c4c(Cl)cccc4Cl)c(=O)n(C)c3n2)c1 [PD-173955]	more limited sensitization	–	little or no inhibition	No	Devimistat synergy (AsPC1 cells [2]): No
Oc1c(Cl)cc(Cl)c(Cl)c1Cc1c(O)c(Cl)cc(Cl)c1Cl [hexachlorophene]	–	–	–	–	blockade of glutamine rescue from devimistat inhibition of ATP synthesis (AsPC1 cells [1]): blockade
CC[C@H]1/C=C/C=C/C[C@@H](C)[C@H](O)[C@@](C)(O)C(=O)[C@@H](C)[C@H](O)[C@@H](C)C(=O)[C@@H](C)[C@H](O)[C@@H](C)/C=C/C(=O)O[C@@H]2[C@H](C)[C@H](CC1)O[C@]1(CC[C@H](C)[C@H](C[C@@H](C)O)O1)[C@H]2C [oligomycin]	–	induce accelerated glycogen depletion	–	–	–
[H]/N=C(/N)N/C(=N/[H])NCCc1ccccc1 [phenformin]	sensitizes AsPC1 to devimistat	–	–	–	–
C=C(C)[C@H]1Cc2c(ccc3c2O[C@@H]2COc4cc(OC)c(OC)cc4[C@@H]2C3=O)O1 [rotenone]	–	induce accelerated glycogen depletion	–	–	–
